The subject of the assay is MDA-MB-231 human breast cancer cells. The assay can be described thus: Cell proliferation assay (CellTiter-Glo, 72 hours treatment). The settings on record: MDA-MB-231 cells, 72 hours at 37° C., CellTiter-Glo, read-out: MDA-MB-231 cell proliferation assay (IC50). The format is cell-based. The method, boiled down: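 MDA-MB-231 cells seeded at 2,500 cells/well, treated next day with compound or DMSO vehicle for 72 h at 37 °C. Proliferation read by CellTiter-Glo; IC50 from sigmoidal non-linear regression, binned as +++ (<100 nM), ++ (100–1000 nM), + (>1000 nM).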
(ATP-based viability assays read luminescence as a measure of living cells.)

Read-outs that look alike come from different tables or passages of the source.

In the case of `COc1cncc2c1[C@]1(O)[C@H](O)[C@H](C(=O)NC3CC3)[C@@H](c3ccccc3)[C@]1(c1ccc(Br)cc1)O2` (racemic) [89F, Rac-(4bS,5R,6R,7S,7aR)-7a-(4-bromophenyl)-N-cyclopropyl-4b,5-dihydroxy-4-methoxy-7-phenyl-4b,6,7,7a-tetrahydro-5H-cyclopenta[4,5]furo[2,3-c]pyridine-6-carboxamide], the IC50 (Homo sapiens) was less than 100 nM.

As to `NC[C@@H]1C[C@@H](c2ccccc2)[C@]2(c3ccc(Br)cc3)Oc3cc(Cl)cnc3[C@]12O` (racemic) [165F, Rac-(5aR,6S,8S,8aR)-8-(aminomethyl)-5a-(4-bromophenyl)-3-chloro-6-phenyl-5a,6,7,8-tetra-hydro-8aH-cyclopenta[4,5]furo[3,2-b]pyridin-8a-ol], the IC50 (Homo sapiens) lay within 100 to 1000 nM.

In the case of `CN(Cc1ccccc1)S(=O)(=O)[C@H]1[C@@H](O)[C@@]2(O)c3ncc(Cl)cc3O[C@@]2(c2ccc(Br)cc2)[C@@H]1c1ccccc1` (racemic) [123F, rac-(5aR,6S,7R,8S,8aS)—N-benzyl-5a-(4-bromophenyl)-3-chloro-8,8a-dihydroxy-N-methyl-6-phenyl-5a,7,8,8a-tetrahydro-6H-cyclopenta[4,5]furo[3,2-b]pyridine-7-sulfonamide], where the note is “Homo sapiens”, the IC50 was in the range of 100 to 1000 nM.

With `COc1cncc2c1[C@]1(O)[C@H](O)[C@H](C(=O)N3CC4CC(C3)O4)[C@@H](c3ccccc3)[C@]1(c1ccc(Br)cc1)O2` (racemic) [273F, Rac-(6-oxa-3-azabicyclo[3.1.1]heptan-3-yl)((4bS,5R,6R,7S,7aR)-7a-(4-bromophenyl)-4b,5-dihydroxy-4-methoxy-7-phenyl-4b,6,7,7a-tetrahydro-5H-cyclopenta[4,5]furo[2,3-c]pyridin-6-yl)methanone], under “Homo sapiens”, the IC50 was less than 100 nM.

For the compound `N#Cc1ccc([C@@]23Oc4cc(Cl)cnc4[C@]2(O)[C@H](O)[C@H](CO)[C@H]3c2ccccc2)cc1` (racemic) [56F, Rac-4-((5aR,6S,7S,8R,8aS)-3-chloro-8,8a-dihydroxy-7-(hydroxymethyl)-6-phenyl-6,7,8,8a-tetrahydro-5aH-cyclopenta[4,5]furo[3,2-b]pyridin-5a-yl)benzonitrile], the IC50 (Homo sapiens) is more than 1000 nM.

Take `COc1cncc2c1[C@]1(O)[C@H](O)[C@H](CN(C)C)[C@@H](c3ccccc3)[C@]1(c1ccc(C#N)cc1)O2` (single isomer, unassigned) [103F]: the IC50 was less than 100 nM.

In the case of `COC(=O)[C@H]1[C@@H](O)[C@@]2(O)c3c(cc(Cl)nc3OC)O[C@@]2(c2ccc(Br)cc2)[C@@H]1c1ccccc1` (racemic) [136F, Rac-Methyl (5aR,6S,7R,8R,8aS)-5a-(4-bromophenyl)-3-chloro-8,8a-dihydroxy-1-methoxy-6-phenyl-5a,7,8,8a-tetrahydro-6H-cyclopenta[4,5]furo[3,2-c]pyridine-7-carboxylate], the IC50 (Homo sapiens) was less than 100 nM.

For the compound `COc1cncc2c1[C@]1(O)[C@H](O)[C@H](CCN(C)C)[C@@H](c3ccccc3)[C@]1(c1ccc(C#N)cc1)O2` (racemic) [276F, Rac-4-((4bS,5R,6R,7S,7aR)-6-(2-(dimethylamino)ethyl)-4b,5-dihydroxy-4-methoxy-7-phenyl-4b,5,6,7-tetrahydro-7aH-cyclopenta[4,5]furo[2,3-c]pyridin-7a-yl)benzonitrile], the IC50 (Homo sapiens) lay within 100 to 1000 nM.

Consider `CN(C)C(=O)[C@@H]1[C@@H](c2ccccc2)[C@]2(c3ccc(C#N)cc3)Oc3cc(Cl)cnc3[C@]2(O)[C@]1(C)O` (racemic) [33Fa, Rac-(5aR,6S,7R,8R,8aS)-3-chloro-5a-(4-cyanophenyl)-8,8a-dihydroxy-N,N,8-trimethyl-6-phenyl-5a,7,8,8a-tetrahydro-6H-cyclopenta[4,5]furo[3,2-b]pyridine-7-carboxamide], for which the IC50 (Homo sapiens) fell in the range of 100 to 1000 nM.

Turning to `CN(C)S(=O)(=O)[C@H]1[C@@H](O)[C@@]2(O)c3ncc(Cl)cc3O[C@@]2(c2ccc(C#N)cc2)[C@@H]1c1ccccc1` (racemic) [22F, Rac-(5aR,6S,7R,8S,8aS)-3-chloro-5a-(4-cyanophenyl)-8,8a-dihydroxy-N,N-dimethyl-6-phenyl-5a,7,8,8a-tetrahydro-6H-cyclopenta[4,5]furo[3,2-b]pyridine-7-sulfonamide], the IC50 (Homo sapiens) was in the range of 100 to 1000 nM.

Consider `COc1cncc2c1[C@]1(O)[C@H](O)[C@H](C(=O)N3CCCCC3)[C@@H](c3ccccc3)[C@]1(c1ccc(Br)cc1)O2` (racemic) [257F, Rac-((4bS,5R,6R,7S,7aR)-7a-(4-bromophenyl)-4b,5-dihydroxy-4-methoxy-7-phenyl-4b,6,7,7a-tetrahydro-5H-cyclopenta[4,5]furo[2,3-c]pyridin-6-yl)(piperidin-1-yl)methanone], for which the IC50 (Homo sapiens) is less than 100 nM.

As to `CC(C)n1cc2c(n1)[C@]1(O)[C@H](O)[C@H](C(=O)N(C)C)[C@@H](c3ccccc3)[C@]1(c1ccc(C#N)cc1)O2` (racemic) [80F, rac-(4aR,5S,6R,7R,7aS)-4a-(4-cyanophenyl)-7,7a-dihydroxy-2-isopropyl-N,N-dimethyl-5-phenyl-2,4a,5,6,7,7a-hexahydrocyclopenta[4,5]furo[3,2-c]pyrazole-6-carboxamide], the IC50 (Homo sapiens) was more than 1000 nM.

As for `COc1cncc2c1[C@]1(O)[C@H](O)[C@H](CN3CC4CC(C3)O4)[C@@H](c3ccccc3)[C@]1(c1ccc(C#N)cc1)O2` (single isomer, unassigned) [274F], the IC50 (Homo sapiens) lay in the range of 100 to 1000 nM.

For the compound `COc1cncc2c1[C@]1(O)[C@@H](CN3CCN(C)CC3)[C@H](CO)[C@@H](c3ccccc3)[C@]1(c1ccc(C#N)cc1)O2` (racemic) [184F, Rac-4-((4bR,5R,6R,7S,7aR)-4b-hydroxy-6-(hydroxymethyl)-4-methoxy-5-((4-methyl-piperazin-1-yl)methyl)-7-phenyl-4b,5,6,7-tetrahydro-7aH-cyclopenta[4,5]furo[2,3-c]pyridin-7a-yl)benzonitrile], the IC50 (Homo sapiens) is less than 100 nM.

Consider `COc1nc(Cl)cc2c1[C@]1(O)[C@H](O)[C@H](CN(C)C)[C@@H](c3ccccc3)[C@]1(c1ccc(C#N)cc1)O2` (single isomer, unassigned) [140F], for which the IC50 (Homo sapiens) is less than 100 nM.

For the compound `N#Cc1ccc([C@@]23Oc4cc(Cl)cnc4[C@]2(O)[C@@H](C#N)[C@H](C(N)=O)[C@H]3c2ccccc2)cc1` (racemic) [52F, Rac-(5aR,6S,7R,8R,8aR)-3-chloro-8-cyano-5a-(4-cyanophenyl)-8a-hydroxy-6-phenyl-5a,7,8,8a-tetrahydro-6H-cyclopenta[4,5]furo[3,2-b]pyridine-7-carboxamide], the IC50 (Homo sapiens) is 100 to 1000 nM.

As for `COc1nc(Cl)cc2c1[C@]1(O)[C@H](O)[C@H](CN3CCCC3)[C@@H](c3ccccc3)[C@]1(c1ccc(C#N)cc1)O2` (racemic) [158Fb, Rac-4-((5aR,6S,7S,8R,8aS)-3-chloro-8,8a-dihydroxy-1-methoxy-6-phenyl-7-(pyrrolidin-1-ylmethyl)-6,7,8,8a-tetrahydro-5aH-cyclopenta[4,5]furo[3,2-c]pyridin-5a-yl)benzonitrile], the IC50 (Homo sapiens) is less than 100 nM.

Take `COc1cncc2c1[C@]1(O)[C@H](O)[C@H](S(=O)(=O)c3ccccc3)[C@@H](c3ccccc3)[C@]1(c1ccc(C#N)cc1)O2` (racemic) [118F, Rac-4-((4bS,5S,6R,7S,7aR)-4b,5-dihydroxy-4-methoxy-7-phenyl-6-(phenylsulfonyl)-4b,5,6,7-tetrahydro-7aH-cyclopenta[4,5]furo[2,3-c]pyridin-7a-yl)benzonitrile]: the IC50 (Homo sapiens) lay in the range of 100 to 1000 nM.

In the case of `CNS(=O)(=O)[C@H]1[C@@H](O)[C@@]2(O)c3ncc(Cl)cc3O[C@@]2(c2ccc(Br)cc2)[C@@H]1c1ccccc1` (racemic) [124F, Rac-(5aR,6S,7R,8S,8aS)-5a-(4-bromophenyl)-3-chloro-8,8a-dihydroxy-N-methyl-6-phenyl-5a,7,8,8a-tetrahydro-6H-cyclopenta[4,5]furo[3,2-b]pyridine-7-sulfonamide], the IC50 (Homo sapiens) lay within 100 to 1000 nM.

Take `COc1ccc([C@@]23Oc4cc(C#N)cnc4[C@]2(O)[C@H](O)[C@H](C(=O)N(C)C)[C@H]3c2ccccc2)cc1` (single isomer, unassigned) [4F]: the IC50 (Homo sapiens) fell in the range of 100 to 1000 nM.

Consider `COc1nc(C#N)cc2c1[C@]1(O)[C@H](O)[C@H](CN3CC(F)C3)[C@@H](c3ccccc3)[C@]1(c1ccc(C#N)cc1)O2` (racemic) [211Fa, Rac-(5aR,6S,7S,8R,8aS)-5a-(4-cyanophenyl)-7-((3-fluoroazetidin-1-yl)methyl)-8,8a-dihydroxy-1-methoxy-6-phenyl-5a,7,8,8a-tetrahydro-6H-cyclopenta[4,5]furo[3,2-c]pyridine-3-carbonitrile], for which the IC50 (Homo sapiens) was less than 100 nM.

For the compound `CN(C)C(=O)[C@H]1[C@@H](O)[C@@]2(O)c3c(Cl)cncc3O[C@@]2(c2ccc(Br)cc2)[C@@H]1c1ccccc1` (racemic) [97F, Rac-(4bS,5R,6R,7S,7aR)-7a-(4-bromophenyl)-4-chloro-4b,5-dihydroxy-N,N-dimethyl-7-phenyl-4b,6,7,7a-tetrahydro-5H-cyclopenta[4,5]furo[2,3-c]pyridine-6-carboxamide], the IC50 (Homo sapiens) fell in the range of 100 to 1000 nM.

Take `N#Cc1ccc([C@@]23Oc4cc(Cl)cnc4[C@]2(O)[C@H](O)[C@H](S(=O)(=O)N2CCCC2)[C@H]3c2ccccc2)cc1` (single isomer, unassigned) [83F]: the IC50 (Homo sapiens) was less than 100 nM.

For `COc1cncc2c1[C@]1(O)[C@@H](CNC(C)(C)C)[C@H](CO)[C@@H](c3ccccc3)[C@]1(c1ccc(Br)cc1)O2` (racemic) [226F, Rac-(4bR,5R,6R,7S,7aR)-7a-(4-bromophenyl)-5-((tert-butylamino)methyl)-6-(hydroxymethyl)-4-methoxy-7-phenyl-5,6,7,7a-tetrahydro-4bH-cyclopenta[4,5]furo[2,3-c]pyridin-4b-ol], where the note is “Homo sapiens”, the IC50 was less than 100 nM.

Turning to `COc1cncc2c1[C@]1(O)[C@H](O)[C@H](CN(C)C)[C@@H](c3ccccc3)[C@]1(c1ccc(Cl)cc1)O2` (single isomer, unassigned) [272F], the IC50 (Homo sapiens) is less than 100 nM.

Source of the values: patent US10577378B2, “EIF4A-inhibiting compounds and methods related thereto” (eFFECTOR Therapeutics, Inc., priority 2015, dated 2020).
